Reference: ChEMBL document CHEMBL1201862, “PubChem BioAssay data set” (2004)
The source made the active and inactive calls. Cut-off read from the data, not from the text of the source, for most assays here: actives have a measured EC50 and inactives only a lower limit.

Assays:
[1] = molecular target: T1, Corticotropin-releasing factor receptor 2/Corticotropin-releasing factor-binding protein (Homo sapiens, UniProt P24387+Q13324); assay: activators of CRF receptor 2 with binding protein – uHTS hits, confirmation (AID 602473); type: functional; details: read-out: EC50_Mean
T1 sequence (Q13324 whole entry): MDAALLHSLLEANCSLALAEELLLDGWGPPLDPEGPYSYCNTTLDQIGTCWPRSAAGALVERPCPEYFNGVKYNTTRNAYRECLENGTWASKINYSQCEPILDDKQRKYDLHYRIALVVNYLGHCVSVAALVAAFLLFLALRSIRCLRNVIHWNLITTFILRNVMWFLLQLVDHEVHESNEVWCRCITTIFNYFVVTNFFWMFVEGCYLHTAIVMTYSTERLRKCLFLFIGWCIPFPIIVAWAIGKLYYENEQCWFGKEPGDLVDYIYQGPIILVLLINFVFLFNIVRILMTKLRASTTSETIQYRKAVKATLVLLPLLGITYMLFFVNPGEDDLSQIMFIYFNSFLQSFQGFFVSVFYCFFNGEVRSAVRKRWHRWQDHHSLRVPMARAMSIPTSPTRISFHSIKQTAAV
T1 sequence (P24387 whole entry): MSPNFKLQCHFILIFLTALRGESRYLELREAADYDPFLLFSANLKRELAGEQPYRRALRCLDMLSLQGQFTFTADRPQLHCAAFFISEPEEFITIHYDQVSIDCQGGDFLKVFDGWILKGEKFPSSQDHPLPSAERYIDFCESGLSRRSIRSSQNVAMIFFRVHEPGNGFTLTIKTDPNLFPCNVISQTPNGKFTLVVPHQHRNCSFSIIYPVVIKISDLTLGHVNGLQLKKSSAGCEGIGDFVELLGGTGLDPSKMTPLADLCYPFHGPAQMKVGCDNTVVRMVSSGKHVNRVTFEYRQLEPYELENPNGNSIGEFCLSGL

[2] = NIH-3T3 fibroblast cytotoxicity, dose response, cytotoxicity control, cell-based, fluorescence, Alamar Blue, secondary assay (AID 2327); type: functional;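 note: NIH-3T3 mouse fibroblasts cultured with fluconazole at 8 µg/mL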
[3] = molecular target: T2, Heat shock factor protein 1 (Mus musculus, UniProt P38532); assay: inhibition of MG132-induced HSE-luciferase signal, confirmation, cell-based, NIH3T3, luminescence, dose retest (AID 2382); type: functional;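 note: NIH3T3 fibroblasts with HSF1-driven luciferase reporter stressed by proteasome inhibitor MG132; luminescence from HSF1-driven luciferase expression after 8 hours of MG132 stress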
T2 sequence (P38532 whole entry): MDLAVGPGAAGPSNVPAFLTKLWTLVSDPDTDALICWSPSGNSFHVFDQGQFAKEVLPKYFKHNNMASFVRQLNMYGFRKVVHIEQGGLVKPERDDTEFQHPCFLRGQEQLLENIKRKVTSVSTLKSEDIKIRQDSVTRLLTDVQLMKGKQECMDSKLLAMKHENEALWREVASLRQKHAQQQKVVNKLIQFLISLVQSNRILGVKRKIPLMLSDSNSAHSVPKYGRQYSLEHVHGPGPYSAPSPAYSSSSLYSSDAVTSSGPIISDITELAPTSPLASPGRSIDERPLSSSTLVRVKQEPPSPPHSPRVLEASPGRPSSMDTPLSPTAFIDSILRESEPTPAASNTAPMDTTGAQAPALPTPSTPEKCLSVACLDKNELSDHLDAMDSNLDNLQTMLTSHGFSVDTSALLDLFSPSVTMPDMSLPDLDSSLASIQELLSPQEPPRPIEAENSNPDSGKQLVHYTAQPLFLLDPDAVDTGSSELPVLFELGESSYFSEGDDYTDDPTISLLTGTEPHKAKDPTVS

[4] = system: Streptococcus sp. 'group A'; assay: growth inhibition of control SK(-) GAS strain, dose response, counter-screen for streptokinase expression inhibitor project, luminescence, kanamycin, BacTiterGlo, confirmation (AID 1900); type: functional, organism-based
[5] = HEp-2 cell cytotoxicity, dose response, cytotoxicity control for RSV inhibitor project, HTS (AID 2410); type: functional; details: human respiratory syncytial virus
Streptokinase A = molecular target: T3, Streptokinase A (Streptococcus pyogenes serotype M1, UniProt P10520); assay: S. pyogenes streptokinase expression inhibitors, potency, dose response, plasminogen activation absorbance, OD405 (AID 1914); type: functional, Streptococcus pyogenes M1 GAS;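 note: secreted streptokinase activity via plasminogen activation per viability signal from cell pellet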
T3 sequence (P10520 whole entry): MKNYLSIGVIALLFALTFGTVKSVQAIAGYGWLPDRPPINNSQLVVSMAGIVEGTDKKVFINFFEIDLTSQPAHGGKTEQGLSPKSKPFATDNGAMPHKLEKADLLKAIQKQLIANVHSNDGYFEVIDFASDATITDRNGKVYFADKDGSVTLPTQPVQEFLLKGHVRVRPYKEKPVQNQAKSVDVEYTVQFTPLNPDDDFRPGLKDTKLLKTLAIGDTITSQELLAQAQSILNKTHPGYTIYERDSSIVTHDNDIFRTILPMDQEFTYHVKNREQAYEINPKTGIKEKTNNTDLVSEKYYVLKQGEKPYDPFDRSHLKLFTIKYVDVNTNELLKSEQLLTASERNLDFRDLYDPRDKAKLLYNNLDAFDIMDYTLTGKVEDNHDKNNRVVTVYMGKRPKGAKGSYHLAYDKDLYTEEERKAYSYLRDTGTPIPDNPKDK

Streptococcus = assay: Group A Streptococcus viability loss, dose response, counter-screen for streptokinase expression inhibitor project, luminescence, BacTiterGlo (AID 1915); type: functional, organism-based;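 note: potency for reduction of bacterial viability or growth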
[6] = Luminescence Cell-Based Dose Response HTS to Identify Inhibitors of 5'UTR Stem-Loop Driven Prion Protein mRNA Translation in H4 Neuroglioblastoma Cells. [Related pubchem assays: 1827 (Project Summary), 1813 (Primary HTS)]; type: functional
[7] = inhibitors of firefly luciferase expression or activity, dose response, H4 neuroglioma cells, luminescence (AID 1990); type: functional, cell-based
[8] = inhibitors of SNCA 5'UTR-driven reporter translation, confirmation, H4 neuroglioma cells, luminescence (AID 1988); type: functional, cell-based
[9] = Luminescence Cell-Based Dose Response HTS to Identify Activators of Luciferase Translation or Activity in H4 […] Cells. [Related pubchem assays: 1829 (Project Summary), 1814 (Primary HTS)]; type: functional
H4 = assay: Luminescence Cell-Based Dose Response HTS to Identify Activators of 5'UTR Stem-Loop Driven Prion Protein mRNA Translation in H4 Neuroglioblastoma Cells. [Related pubchem assays: 1829 (Project Summary), 1814 (Primary HTS)]; type: functional; details: Homo sapiens
[10] = Luminescence Cell-Based Dose Confirmation HTS to Identify Activators of 5'UTR Stem-Loop Driven Alpha-Synuclein mRNA Translation in H4 Neuroglioblastoma Cells. [Related pubchem assays: 1829 (Project Summary), 1814 (Primary HTS)]; type: functional

Compound | CC50 [5] | EC50 [9] | EC50 (H4) | EC50 [10] | further results
Cc1[nH]c2ccccc2c1C(=O)CN1CCCCC1C (stereo not drawn) |  |  |  |  | EC50 [1]: 9.87 µM (active)
O=C(Nc1cccc(-c2cn3c(n2)SCC3)c1)c1ccc(Br)o1 |  |  |  |  | EC50 [2]: > 150 µM (inconclusive)
OC(COc1c(F)cc(Br)cc1F)CN1CCN(c2ccc(F)cc2)CC1 (stereo not drawn) |  |  |  |  | EC50 [3]: > 195 µM (not active)
CCCCc1c(C)nn(-c2nnc3c4ccccc4n(CC)c3n2)c1C | 5.26 µM (active) |  |  |  | EC50 [4]: 4.61 µM (active); EC50 (Streptokinase A): > 150 µM (not active); EC50 (Streptococcus): > 150 µM (not active)
O=C(COC(=O)C1(c2ccccc2F)CCCC1)N1CCc2ccccc21 |  |  |  |  | EC50 [3]: > 195 µM (not active)
CCOc1cc(-c2cc(-c3ccc(C)cc3)nc(N)c2C#N)ccc1O |  |  |  |  | EC50 [6]: > 120 µM (not active); EC50 [7]: 14.7 µM (active); EC50 [8]: 10.7 µM (active)
OCCCNc1nc(-c2ccc(Cl)cc2)nc2ccccc12 | > 50 µM (active) |  |  |  | 
COc1cc(CN(C2CCCCC2C)S(=O)(=O)c2ccc(S(=O)(=O)NC3CC3)cc2)cc(OC)c1OC (stereo not drawn) |  |  |  |  | EC50 [6]: > 120 µM (not active); EC50 [7]: 103 µM (active); EC50 [8]: > 120 µM (not active)
CCOC(=O)C1CCCN(Cc2cc(=O)oc3cc(C)c(C(C)C)cc23)C1 (stereo not drawn) | 31.3 µM (active) |  |  |  | 
COc1nc(-c2ccccc2)cc(-c2ccc3c(c2)OCO3)c1C#N |  |  |  |  | EC50 [6]: 27.6 µM (active); EC50 [7]: 11.2 µM (inconclusive); EC50 [8]: 3.63 µM (active)
O=C1NC(=O)C2(N1)C(=O)c1cccc3cccc2c13 (stereo not drawn) |  |  |  |  | EC50 [1]: 8.84 µM (active)
CN(Cc1ccsc1)C(=O)Cn1cc(Br)ccc1=O |  | 8.64 µM (active) | 31.7 µM (active) | > 120 µM (not active) | 
Cc1ccc(/C=C2\SC(N3CCCCC3)=NC2=O)cc1 |  | 10.1 µM (active) | 45.1 µM (active) | 53.1 µM (active) | 
CCN(CC)CCSc1nnc2c3ccccc3n(CCc3ccccc3)c2n1 |  | 16.1 µM (active) | > 120 µM (not active) | > 120 µM (not active) | 
COc1ccc2nc(-n3c(C)ccc3C)sc2c1 |  | 8.93 µM (active) | 60.8 µM (active) | 38 µM (active) | EC50 [4]: > 150 µM (not active); EC50 (Streptokinase A): > 150 µM (not active); EC50 (Streptococcus): > 150 µM (not active)
CC(=O)O[C@H]1CC[C@@]2(C)[C@@H](CC[C@@H]3[C@@H]2CC[C@]2(C)[C@@H](C(C)(C)O)C[C@@H]32)C1 | 36.9 µM (active) |  |  |  | 
COCC1CCN(Cc2nc(-c3ccc4c(c3)OCO4)no2)C1 (stereo not drawn) |  | 13.1 µM (active) | 45 µM (active) | 10.1 µM (active) | EC50 [1]: > 53 µM (inactive)
COc1ccc(/C=C2\SC(=O)N(CCNC(=O)Cc3coc4cc(OC)ccc34)C2=O)cc1 |  | 11.5 µM (active) | 10.4 µM (active) | 23.4 µM (active) | 
O=S(=O)(c1cccc(-c2nnc(SCc3nc4ccccc4s3)o2)c1)N1CCOCC1 |  | 21.4 µM (active) | > 120 µM (not active) | 5.25 µM (active) | 
CSc1c(CC(=O)Nc2ccccc2)n(C)c2ccccc12 |  |  |  |  | EC50 [6]: > 120 µM (not active); EC50 [7]: > 120 µM (not active); EC50 [8]: 0.344 µM (inconclusive)

Compound | CC50 [5] | EC50 [9] | EC50 (H4) | EC50 [10] | further results
Cc1c(C(=O)Nc2nnc(C(F)(F)F)s2)oc2ccccc12 |  | 6.63 µM (active) | 72.7 µM (active) | 3.22 µM (active) | 
Fc1cccc(/C=N/NC(=S)Nc2ccccc2Cl)c1 |  | 4.14 µM (active) | > 120 µM (not active) | 19.6 µM (active) | 
COc1cccc(N2CCN(CC(=O)c3c[nH]c4ccc(OC)cc34)CC2C)c1 (stereo not drawn) | 38.1 µM (active) |  |  |  | 
Cc1nn(-c2ccccc2)c(C)c1C(=O)OCC(=O)N(C)C1CCS(=O)(=O)C1 (stereo not drawn) |  | 12.5 µM (active) |  | 0.313 µM (active) | 
Cc1ccc(-c2nnc(SCC#CCOC(=O)c3cccs3)o2)cc1 |  | 37.3 µM (active) | 13.8 µM (active) | 8.34 µM (active) | 
Cc1ccc(N(CC(=O)NCCSc2nc3ccccc3s2)S(=O)(=O)c2ccccc2)c(C)c1 |  |  |  |  | EC50 [6]: > 120 µM (not active); EC50 [7]: > 120 µM (not active); EC50 [8]: 14.8 µM (active)
COC(=O)c1cnc(Oc2ccc(NC(=O)NC(=O)c3c(OC)cccc3OC)cc2)cc1C(F)(F)F |  |  |  |  | EC50 [6]: 0.142 µM (active); EC50 [7]: 0.293 µM (active); EC50 [8]: 0.111 µM (active)
COc1cc(C(C)=O)ccc1OCc1cc(C(=O)N(C)CCC2CCCCO2)no1 (stereo not drawn) |  | 80.8 µM (active) | 7.86 µM (active) | 0.831 µM (active) | 
Nc1n[nH]c(-c2cccc([N+](=O)[O-])c2)n1 |  |  |  |  | EC50 [2]: > 150 µM (inactive)
C#CCN1C(C)=C(C(=O)OC)C(c2cccc([N+](=O)[O-])c2)C(C(=O)OCC)=C1C (stereo not drawn) | 24.8 µM (active) |  |  |  | 
COc1ccc(C(=O)NCc2cc3ccccc3n2C)cc1 |  | 12 µM (active) | 9.84 µM (active) | 7.51 µM (active) | 
Cc1ccccc1C1=Nc2c(c(=O)n(C)c(=O)n2C)C(C(F)(F)F)(C(F)(F)F)N1 | > 50 µM (active) |  |  |  | 
Cn1c(SCC(=O)N/N=C/c2cc([N+](=O)[O-])ccc2O)nnc1-c1ccccc1 |  |  |  |  | EC50 [1]: > 53 µM (inactive)
Cn1c(-c2ccsc2)c(-c2cccs2)c2cc(-c3cccc4[nH]ccc34)ccc21 | 32.1 µM (active) |  |  |  | 
CCOC(=O)Cc1csc(NC(=O)c2ccc(S(=O)(=O)N3CCCCC3)cc2)n1 | 11.5 µM (active) |  |  |  | 
CCOC(=O)C1(CCc2ccccc2)CCN(C(=O)CCn2cncn2)CC1 |  | 12 µM (active) | 7.67 µM (active) | 28.8 µM (active) | 
Cc1c(Cl)ccc2c(C(=O)NC(C)c3ccncc3)cc(-c3ccncc3)nc12 (stereo not drawn) | 25.1 µM (active) |  |  |  | 
CC(=O)COc1ccc2c3c(c(=O)oc2c1C)CCCCC3 |  | 38.4 µM (active) | > 120 µM (not active) | 28.8 µM (active) | 
O=C(c1ccccc1Cl)N1N=C(c2ccc(Br)cc2)CC1c1nc2ccccc2[nH]1 (stereo not drawn) | 14.3 µM (active) |  |  |  | 
Cc1[nH]c2ccc(C(=O)OC(C)C(=O)NC3CCCCC3C)cc2c1C (stereo not drawn) | 12.1 µM (active) |  |  |  | 
